Entries after “also recorded” stand apart in the source; their conditions may differ.

The text below walks through data of patent publication US11780934B2, “Use of inhibitors of ADAM12 as adjuvants in tumor therapies” (INSTITUT PASTEUR, priority 2016, dated 2023).

The test system of this test is ADAM12+ CAFs. Kind of test: Depletion of ADAM12+ CAFs by diphtheria toxin in M12-DTR mice bearing murine melanoma (MO5). The class given is in vivo, mouse.
The mark [1] stands for this setting: M12-DTR+DT vs tumors with normal stroma, melanoma.

Consider diphtheria toxin [DT], for which the “depletion of ADAM12+ CAFs” value (M12-DTR mice, DT ip starting at day 9 or 10 after melanoma cell inoculation) is reported as “specifically depleted”. The “density of CD31+ vessels inside the tumors” value (M12-DTR+DT vs control (DTR negative) mice, melanoma, immunofluorescence, two or three weeks after inoculation) is “higher density”. Also, the “tumor perfusion (positive area of Hoechst 33342 staining)” value (M12-DTR+DT vs control mice, melanoma, Hoechst 33342 iv) is listed as “increased perfusion”. For the setting “M12-DTR+DT vs control mice, melanoma, immunofluorescence”, the “activation of CD31+ vessels (ICAM1+)” value is given as “activated ICAM1+ phenotype”. The tumor growth entry (M12-DTR+DT vs mice with normal tumor stroma, murine melanoma model) is recorded as “significantly delayed; also recorded: decrease in tumor growth”. In addition, under setting [1], the “frequency of CD3+ T cells in tumor” value was “significantly higher frequency; also recorded: higher T cells (CD3+) infiltration”; the “percentage of myeloid-derived suppressor cells (MDSC) and T-regulator cells (Tregs)” value is on record as “remained unchanged”; the “ratio of M1/M2 macrophages” value is on record as “increased ratio”. Also, the “location of CD3+ T cells in tumor” value (M12-DTR+DT vs tumors with normal stroma, melanoma, histology) is on record as “recruited to the core of the tumor”.
